US7834053B2, “Medicinal compositions improving brain function and method for improving brain function” (priority 2002, dated 2010)
Values joined by “and” are separate entries in the source; they are usually repeats but may differ in a detail not shown here. Equal values may be shown once.

Legend:
ddY male mice = experiment: Anti-hypoxic activity: survival time of mice in 4% oxygen / 96% nitrogen after oral administration; format: in vivo
Experimental: Test compounds A1, A2, A3, B1 and B2 were put to use after dissolution in distilled water. Test compounds C1 and C2 were put to use after suspending them in 0.5% solution of methylcellulose.
The test was carried out according to the method described in Japanese Journal of Pharmacology, Vol. 62, Page 81, 1993.
To one group (6-10 animals) of ddY male mice having an age of 4-5 weeks was orally administered a test compound dissolved in distilled water or suspended in 0.5% methyl cellulose solution. Thirty minutes after the administration, the mice were introduced into a glass container at a volume of 300 mL, and a gaseous mixture composed of 4% of oxygen and 96% of nitrogen was passed though the glass container at a flow rate of 5 L/minute. The period of time from the start of passing the gaseous mixture to the death of the mice was measured. To the control group, distilled water was administered orally.

[1] = reported in the literature; cited from earlier work
nerve growth factor = conditions: WO96/12717; cited from earlier work
[2] = test system: neuronal death caused by amyloid-beta-protein; conditions: Society for Neuroscience Abstracts 24, Part 1, 228, 1998; cited from earlier work
in-brain acetylcholine = conditions: Society for Neuroscience Abstracts 21, 947, 1995; cited from earlier work
[3] = Society for Neuroscience Abstracts 21, 947, 1995; cited from earlier work
[4] = 100 mg/kg oral, alone, survival time vs control x100
[5] = 10 mg/kg oral, alone, survival time vs control x100, 30 min after administration
[6] = Compound (1) 10 mg/kg oral in combination with Compound B1 (Donepezil) 3 mg/kg
[7] = Compound (1) 10 mg/kg oral in combination with Compound B2 (Tacrine) 10 mg/kg

Cl.FC(F)(F)c1cccc(C2=CCN(CCc3ccc4ccccc4c3)CC2)c1 [Compound C2, SR57746A]
Anti-hypoxic activity (%) (ddY male mice; 30 mg/kg oral, alone, survival time vs control x100): 100%
Anti-hypoxic activity (%) (ddY male mice; [4]): 123%
Anti-hypoxic activity (%) (ddY male mice; Compound (1) 100 mg/kg oral in combination with Compound B1 (Donepezil) 3 mg/kg): 111%

Cl.Nc1c2c(nc3ccccc13)CCCC2 [Compound B2, 1,2,3,4-tetrahydro-9-acridinamine hydrochloride]
anti-hypoxic activity [1]: anti-hypoxic activity is shown
Anti-hypoxic activity (%) (ddY male mice; 10 mg/kg oral, alone, survival time vs control x100, 30 min after administration, hydrochloride): 127% and 107%

COc1cc2c(cc1OC)C(=O)C(CC1CCN(Cc3ccccc3)CC1)C2 (centres unmarked) [Compound B1, Donepezil]
Anti-hypoxic activity (%) (ddY male mice; 3 mg/kg oral, alone, survival time vs control x100): 119% and 104%

COC1=C(OC)C(=O)C(CCCCCCCCCCO)=C(C)C1=O [Compound C1, Idebenone]
Anti-hypoxic activity (%) (ddY male mice; [4]): 104%
Anti-hypoxic activity (%) (ddY male mice; 300 mg/kg oral, alone, survival time vs control x100): 108%
Anti-hypoxic activity (%) (ddY male mice; Compound (1) 300 mg/kg oral in combination with Compound B1 (Donepezil) 3 mg/kg): 100%

CCN(CC)CCOC[C@H](O)c1ccc2sccc2c1.Cl [Compound A1, (R)-1-{benzo[b]thiophen-5-yl}-2-[2-(N,N-diethylamino}ethoxy]ethanol hydrochloride]
anti-hypoxic activity [1]: has an anti-hypoxic activity
effect on the action of nerve growth factor (nerve growth factor): exhibits an increasing effect
Anti-hypoxic activity (%) (ddY male mice; [5]): 137%
Anti-hypoxic activity (%) (ddY male mice; [6]): 211%
Anti-hypoxic activity (%) (ddY male mice; [7]): 172%
protecting effect on the neuronal death caused by amyloid-beta-protein [2]: exhibits a protecting effect
release of in-brain acetylcholine (in-brain acetylcholine): promotes the release of in-brain acetylcholine
anti-amnestic activity [3]: an anti-amnestic activity

CN(CCO)CCCOCCc1ccc2sccc2c1.CN(CCO)CCCOCCc1ccc2sccc2c1.O=C(O)/C=C/C(=O)O [Compound A2, 2-[[3-(2-benzo[b]thiophen-5-yl-ethoxy)propyl](methyl)amino]-1-ethanol.1/2fumarate]
Anti-hypoxic activity (%) (ddY male mice; [5]): 114%
Anti-hypoxic activity (%) (ddY male mice; [6]): 168%
Anti-hypoxic activity (%) (ddY male mice; [7]): 172%

O=C(O)/C=C\C(=O)O.OC1CN(CCCOCCc2ccc3sccc3c2)C1 [Compound A3, 1-[3-(2-(1-benzothiophen-5-yl)ethoxy]-propyl]-3-azetidinol-maleate]
Anti-hypoxic activity (%) (ddY male mice; [5]): 111%
Anti-hypoxic activity (%) (ddY male mice; [6]): 190%
Anti-hypoxic activity (%) (ddY male mice; [7]): 149%
